Measured values published in US5604227A, “Pyridazinedione compounds useful in treating neurological disorders” (Imperial Chemical Industries PLC, priority 1991, dated 1997).
Like-named read-outs stand apart in the source and are kept apart here.

What was measured:
[1] = tested on: NMDA receptor; conditions: reference antagonists, general statement; cited from earlier work
[2] = tested on: neuronal damage in the hippocampus; assay: gerbil ischemic model, bilateral carotid occlusion (Test D); type: in vivo, Mongolian gerbils; conditions: 10 mg/Kg ip, pre- and post-occlusion (e.g. 45 min before and 5 min after)
Text: (§1) The actions of compounds according to the invention as antagonists at the glycine receptor of the NMDA receptor complex can be shown by one or more standard tests such as the [^3 H]-glycine binding assay (Test A), by functional assays in vitro such as tests for measuring glutamate-evoked contractions of the guinea pig ileum (Test B) and/or tests for measuring antagonism of NMDA-induced evoked response in hippocampal slices (Test C), and by tests in vivo such as ischemia induced by carotid occlusion in the gerbil model (Test D).
When testing in vivo using the gerbil ischemic model, adult female Mongolian gerbils (50-70 g) are anesthetized with 2 to 3 % halothane. The bilateral common carotid arteries at the neck are exposed and occluded with microaneurysm clips. After 10 min (unless specified), the clips are removed and the blood flow through the carotid arteries is restored and the skin is sutured. Test compounds are administered intraperitoneally both pre- and post-occlusion, for example 45 minutes before and 5 minutes after occlusion of the carotid arteries. Sham-operated animals are treated in the same manner except that the arteries are not clamped. Gross behavioral observations along with motor activity are recorded for 2 hr on the first (24 hr) day following the occlusion. After 4 days, subjects are sacrificed (decapitation), brains are removed, fixed, sectioned and stained with hematoxylin/eosin and cresyl violet.
The brain sections are rated for neuronal damage in the hippocampus using the following rating scale:
1=slight damage (up to 25%)--restricted to CA1/subiculum border
2=moderate damage (up to 50%)--obvious damage, restricted to less than half of CA1 field
3=marked damage (up to 75%)--involving greater than half of CA1 field
4=damage extending beyond CA1 field
Sections (7 micron) are evaluated from each brain. […] The average brain damage rating score for each group is recorded, and the damage scores of the drug treated group are compared to the vehicle-treated group using Wilcoxon-Rank Sum test. […]

[3] = biological target: glycine receptor of the NMDA receptor complex; assay: [3H]-glycine binding assay (Test A); set-up: species or system rat (Sprague-Dawley); conditions: [3H]-glycine 20 nM, rat cortex/hippocampus membranes, pH 7.1, 30 min, 4° C.
Text: as §1
In the [^3 H]-glycine binding assay, neuronal synaptic membranes are prepared from adult (about 250 g) male Sprague-Dawley rats. Freshly dissected cortices and hippocampi are homogenized in 0.32M sucrose (110 mg/mL). Synaptosomes are isolated by centrifugation (1000 xg, 10 min), the supernatant is pelleted (20,000 xg, 20 min) and resuspended in double-distilled water. The suspension was centrifuged for 20 minutes at 8,000 xg. The resulting […] and bully coat are washed twice (48,000 xg, 10 mins, resuspension in double-deionized water). The final pellet is quickly frozen (dry ice/ethanol bath) under double-deionized water and stored at -70° C.
On the day of the experiment, thawed synaptic membranes are homogenized with a Brinkmann Polytron (tm, Brinkmann Instruments, Westbury, N.Y.) tissue homogenizer in 50 millimolar tris(hydroxymethyl)aminomethane citrate, pH 7.1. The membranes are incubated with 0.04% Sufact-AMPS X100 (tm, Pierce, Rockford, Ill.) in buffer for 20 minutes at 37° C. and washed six times by centrifugation (48,000 xg, 10 min) and resuspended in buffer. The final pellet is homogenized at 200 mg wet weight/mL of the buffer for the binding assay.
For [^3 H]-glycine binding at the N-methyl-D-aspartate receptor, 20 nanomolar [^3 H]-glycine (40-60 Ci/mmol, New England Nuclear, Boston, Mass.) is incubated with the membranes suspended in 50 millimolar tris (hydroxymethyl)aminomethane citrate, pH 7.1 for 30 minutes at 4° C. […] Radioactivity is estimated by liquid scintillation counting. […]

[4] = biological target: glycine receptor of the NMDA receptor complex (Cavia porcellus, UniProt A0A286XML8); assay: glutamate-evoked contractions of the guinea pig ileum (Test B); type: cell-based; conditions: 100 micromolar glutamate-evoked contractions, compound 5 min before glutamate
Text: as §1
For glutamate-evoked contractions of the guinea pig ileum, the methodology is as described previously (Luzzi et. al., Br. J. Pharmacol., 95, 1271-1277 (1989)). The longitudinal muscle and associated myenteric plexus are removed and placed in oxygenated modified Krebs-Henseleit solution (118 millimolar NaCl, 4.7 millimolar KCl, 2.5 millimolar CaCl, 1.2 millimolar KH2 PO4, 25 millimolar NaHCO3, and 11 millimolar glucose). Tissues are suspended on glass rods in organ baths under a resting tension of 0.5 g. After an initial depolarization with 80 millimolar potassium ion to remove possible blockade of the NMDA receptor channel complex with magnesium, twitch responses are evoked with 100 micromolar glutamate. Isometric mechanical responses are recorded. Tissues are equilibrated for at least 2 hours prior to addition of compounds.
A dose response curve for the effect of the unknown on the magnitude of the glutamate-evoked contractions is generated. Glutamate-evoked contractions are generated at 20 minute intervals, with the test compound added 5 minutes before the glutamate. The magnitude of the contraction with each dose of the unknown is expressed relative to the control, the third contraction evoked by 100 micromolar glutamate alone in the same tissue bath. The IC50 is obtained from a least-squares regression of a logit-log transformation of the data.
After the last contraction for the dose-response curve, 100 micromolar glycine is added to the bath 10 minutes after the previous addition of glutamate. […]

[5] = tested on: NMDA receptor; assay: hippocampal slice test (HST), antagonism of NMDA-induced evoked response (Test C); type: cell-based, rat (Sprague-Dawley); conditions: 5 μM, 0 Mg++
Text: as §1
The characterization of a compound as a glycine antagonist in the hippocampal slice test (HST) is dependent on (1) the ability of the compound to inhibit NMDA receptor-mediated synaptic transmission in hippocampal slices and (2) the subsequent reversal of these inhibitory effects by D-serine.
The procedure for the HST is as follows. Transverse hippocampal slices are obtained from male Sprague-Dawley rats weighting 80-150 gm. […]
For the electrophysiology part of the experiments, bipolar tungsten stimulating electrodes are positioned in the stratum radiatum of the CA3 cell body region of the hippocampus and a single-barrel glass microelectrode filled with Krebs-Ringer solution is positioned in the CA1 cell body region. Low frequency stimulation is then applied to area CA3 which evokes a primary population spike (PS) recorded from CA1. […]

| SMILES | reversal of the inhibition by D-serine [1] | neuroprotection (relative to sham-operated control) [2] | IC50 [3] [nM] | IC50 [4] [nM] | also measured |
| --- | --- | --- | --- | --- | --- |
| NC(CCCP(=O)(O)O)C(=O)O (stereo not shown) [APV] | not reversed by D-serine | – | – | – | – |
| O=c1[nH][nH]c(=O)c2c(O)c3ccc([N+](=O)[O-])cc3nc12 [Example 11, 2,3-Dihydro-10-hydroxy-7-nitropyridazino[4,5-b]quinoline-1,4-dione] | – | over 60% | 8500 | 86000 | – |
| O=c1[nH][nH]c(=O)c2c(O)c3ccc(Cl)cc3nc12 [Example 2, 7-Chloro-2,3-dihydro-10-hydroxypyridazino[4,5-b]quinoline-1,4-dione] | – | Over 70% | 240 | 2100 | antagonism in the hippocampal slice test (inhibition of secondary population spikes) [5]: antagonist; reversal of the inhibition by D-serine [5]: reversed by D-serine |
| C[C@]12N[C@H](Cc3ccccc31)c1ccccc12 [MK-801] | not reversed by D-serine | – | – | – | – |
| NC1CCN(O)C1=O (stereo not shown) [HA-966] | reversed by D-serine | – | – | – | inhibition of the secondary PSs [1]: inhibit the secondary PSs |
| O=C(O)c1cc(O)c2ccc(Cl)cc2n1 [7-chlorokynurenic acid] | reversed by D-serine | – | – | – | inhibition of the secondary PSs [1]: inhibit the secondary PSs |
| O=C(O)C1CN(CCCP(=O)(O)O)CCN1 (stereo not shown) [CPP] | not reversed by D-serine | – | – | – | – |
| O=c1[nH][nH]c(=O)c2c(O)c3c(Cl)cc(Cl)cc3nc12 [Example 4, 7,9-Dichloro-2,3-dihydro-10-hydroxypyridazino[4,5-b]quinoline-1,4-dione] | – | Over 70% | 80 | 2300 | – |
| c1ccc(C2(N3CCCCC3)CCCCC2)cc1 [PCP] | not reversed by D-serine | – | – | – | – |
